Assay results taken from ChEMBL document CHEMBL1153245, “A profile of the in vitro anti-tumor activity of imidazolium-based ionic liquids” (2010).

How the values were obtained:
Assay type in all cases: functional
[1] = tested on: HCC 2998; test: Anticancer activity against human HCC2998 cells after 48 hrs by sulforhodamine B assay; conditions: Homo sapiens, HCC 2998, 48 h; for CC50: read-out: LC50 (the source's name)
[2] = tested on: SNB-75; test: Anticancer activity against human SNB75 cells after 48 hrs by sulforhodamine B assay; conditions: Homo sapiens, SNB-75, 48 h; for CC50: read-out: LC50 (the source's name)
[3] = tested on: IGROV-1; test: Anticancer activity against human IGROV1 cells after 48 hrs by sulforhodamine B assay; conditions: IGROV-1, 48 h; for CC50: read-out: LC50 (the source's name)
[4] = tested on: HT-29; test: Anticancer activity against human HT-29 cells after 48 hrs by sulforhodamine B assay; conditions: Homo sapiens, HT-29, 48 h; for CC50: read-out: LC50 (the source's name)
[5] = tested on: CAKI-1; test: Anticancer activity against human Caki1 cells after 48 hrs by sulforhodamine B assay; conditions: Homo sapiens, CAKI-1, 48 h
[6] = tested on: EKVX; test: Anticancer activity against human EKVX cells after 48 hrs by sulforhodamine B assay; conditions: Homo sapiens, EKVX, 48 h; for CC50: read-out: LC50 (the source's name)
[7] = tested on: UACC-257; test: Anticancer activity against human UACC257 cells after 48 hrs by sulforhodamine B assay; conditions: Homo sapiens, UACC-257, 48 h
[8] = tested on: SK-MEL-5; test: Anticancer activity against human SK-MEL-5 cells after 48 hrs by sulforhodamine B assay; conditions: Homo sapiens, SK-MEL-5, 48 h; for CC50: read-out: LC50 (the source's name)
[9] = tested on: OVCAR-4; test: Anticancer activity against human OVCAR4 cells after 48 hrs by sulforhodamine B assay; conditions: Homo sapiens, OVCAR-4, 48 h; for CC50: read-out: LC50 (the source's name)
[10] = tested on: SK-MEL-2; test: Anticancer activity against human SK-MEL-2 cells after 48 hrs by sulforhodamine B assay; conditions: SK-MEL-2, 48 h
[11] = tested on: U-251; test: Anticancer activity against human U251 cells after 48 hrs by sulforhodamine B assay; conditions: Homo sapiens, U-251, 48 h; for CC50: read-out: LC50 (the source's name)
[12] = tested on: UO-31; test: Anticancer activity against human UO31 cells after 48 hrs by sulforhodamine B assay; conditions: Homo sapiens, UO-31, 48 h
[13] = tested on: 786-0; test: Anticancer activity against human 786-0 cells after 48 hrs by sulforhodamine B assay; conditions: Homo sapiens, 786-0, 48 h
[14] = tested on: SF-539; test: Anticancer activity against human SF539 cells after 48 hrs by sulforhodamine B assay; conditions: Homo sapiens, SF-539, 48 h
[15] = tested on: A549; test: Anticancer activity against human A549 cells after 48 hrs by sulforhodamine B assay; conditions: Homo sapiens, A549, 48 h
[16] = Anticancer activity against human […] cells after 48 hrs by sulforhodamine B assay; conditions: Homo sapiens, RPMI8266, 48 h; for CC50: read-out: LC50 (the source's name)
[17] = tested on: NCI-H23; test: Anticancer activity against human NCI-H23 cells after 48 hrs by sulforhodamine B assay; conditions: Homo sapiens, NCI-H23, 48 h; for CC50: read-out: LC50 (the source's name)
[18] = tested on: BT-549; test: Anticancer activity against human BT549 cells after 48 hrs by sulforhodamine B assay; conditions: Homo sapiens, BT-549, 48 h; for CC50: read-out: LC50 (the source's name)
[19] = tested on: PC-3; test: Anticancer activity against human PC3 cells after 48 hrs by sulforhodamine B assay; conditions: Homo sapiens, PC-3, 48 h; for CC50: read-out: LC50 (the source's name)
[20] = tested on: TK-10; test: Anticancer activity against human TK10 cells after 48 hrs by sulforhodamine B assay; conditions: Homo sapiens, TK-10, 48 h
[21] = tested on: MDA-MB-231; test: Anticancer activity against human MDA-MB-231 cells after 48 hrs by sulforhodamine B assay; conditions: Homo sapiens, MDA-MB-231, 48 h; for CC50: read-out: LC50 (the source's name)
[22] = tested on: K562; test: Anticancer activity against human K562 cells after 48 hrs by sulforhodamine B assay; conditions: Homo sapiens, K562, 48 h; for CC50: read-out: LC50 (the source's name)
[23] = tested on: LOX IMVI; test: Anticancer activity against human LOXIMVI cells after 48 hrs by sulforhodamine B assay; conditions: Homo sapiens, LOX IMVI, 48 h; for CC50: read-out: LC50 (the source's name)
[24] = tested on: HOP-62; test: Anticancer activity against human HOP62 cells after 48 hrs by sulforhodamine B assay; conditions: Homo sapiens, HOP-62, 48 h; for CC50: read-out: LC50 (the source's name)
[25] = tested on: HOP-92; test: Anticancer activity against human HOP92 cells after 48 hrs by sulforhodamine B assay; conditions: Homo sapiens, HOP-92, 48 h; for CC50: read-out: LC50 (the source's name)
[26] = tested on: KM12; test: Anticancer activity against human KM12 cells after 48 hrs by sulforhodamine B assay; conditions: Homo sapiens, KM12, 48 h; for CC50: read-out: LC50 (the source's name)
[27] = tested on: NCI-H522; test: Anticancer activity against human NCI-H522 cells after 48 hrs by sulforhodamine B assay; conditions: Homo sapiens, NCI-H522, 48 h
[28] = tested on: RXF 393; test: Anticancer activity against human RXF393 cells after 48 hrs by sulforhodamine B assay; conditions: Homo sapiens, RXF 393, 48 h
[29] = tested on: OVCAR-8; test: Anticancer activity against human OVCAR8 cells after 48 hrs by sulforhodamine B assay; conditions: Homo sapiens, OVCAR-8, 48 h
[30] = tested on: M14; test: Anticancer activity against human M14 cells after 48 hrs by sulforhodamine B assay; conditions: Homo sapiens, M14, 48 h
[31] = tested on: CCRF-CEM; test: Anticancer activity against human CCRF-CEM cells after 48 hrs by sulforhodamine B assay; conditions: Homo sapiens, CCRF-CEM, 48 h
[32] = tested on: MOLT-4; test: Anticancer activity against human MOLT4 cells after 48 hrs by sulforhodamine B assay; conditions: Homo sapiens, MOLT-4, 48 h
[33] = tested on: SNB-19; test: Anticancer activity against human SNB19 cells after 48 hrs by sulforhodamine B assay; conditions: Homo sapiens, SNB-19, 48 h; for CC50: read-out: LC50 (the source's name)

CCCCCCCCCCCCCCCCCC[n+]1ccn(C)c1.O=S(=O)([N-]S(=O)(=O)C(F)(F)F)C(F)(F)F
GI50 [1]: 0.494 µM
CC50 [1]: 9.07 µM
GI50 [2]: 0.53 µM
CC50 [2]: 5.71 µM
GI50 [3]: 0.516 µM
CC50 [3]: > 100 µM
GI50 [4]: 0.378 µM
CC50 [4]: 9.13 µM
GI50 [5]: 0.263 µM
LC50 [5]: 6.72 µM
GI50 [6]: 0.673 µM
CC50 [6]: 5.76 µM
GI50 [7]: 1.53 µM
LC50 [7]: > 100 µM
GI50 [8]: 0.532 µM
CC50 [8]: 4.21 µM
GI50 [9]: 0.351 µM
CC50 [9]: > 100 µM
GI50 [10]: 2.09 µM
LC50 [10]: > 100 µM
GI50 [11]: 0.397 µM
CC50 [11]: 3.97 µM
GI50 [12]: 1.48 µM
LC50 [12]: > 100 µM
GI50 [13]: 0.952 µM
LC50 (50% lethal concentration) [13]: > 100 µM
GI50 [14]: 0.937 µM
LC50 (lethal concentration, 50% cell kill) [14]: 5.28 µM
GI50 [15]: 1.18 µM
LC50 (concentration killing 50% of cells) [15]: > 100 µM
GI50 [16]: 0.062 µM
CC50 [16]: > 100 µM
GI50 [17]: 0.407 µM
CC50 [17]: 7.7 µM
GI50 [18]: 1.06 µM
CC50 [18]: 5.95 µM
GI50 [19]: 0.311 µM
CC50 [19]: 5.26 µM
GI50 [20]: 0.407 µM
LC50 [20]: 4.43 µM
GI50 [21]: 1.04 µM
CC50 [21]: 5.93 µM
GI50 [22]: 0.312 µM
CC50 [22]: > 100 µM
GI50 [23]: 0.406 µM
CC50 [23]: 5.24 µM
GI50 [24]: 1.11 µM
CC50 [24]: 9.79 µM
GI50 [25]: 0.35 µM
CC50 [25]: > 100 µM
GI50 [26]: 0.454 µM
CC50 [26]: 5.46 µM
GI50 [27]: 1.02 µM
LC50 [27]: > 100 µM
GI50 [28]: 1.03 µM
LC50 [28]: 6.55 µM
GI50 [29]: 0.913 µM
LC50 [29]: > 100 µM
GI50 [30]: 0.537 µM
LC50 (50% lethal concentration) [30]: 6.84 µM
GI50 [31]: 0.458 µM
LC50 [31]: > 100 µM
GI50 [32]: 0.65 µM
LC50 [32]: > 100 µM
GI50 [33]: 1.18 µM
CC50 [33]: 4.95 µM

CCCCCCCCCCCCCCCC[n+]1ccn(C)c1.[Cl-]
GI50 [1]: 0.192 µM
CC50 [1]: 7.29 µM
GI50 [2]: 0.555 µM
CC50 [2]: 5.65 µM
GI50 [3]: 0.048 µM
CC50 [3]: > 100 µM
GI50 [4]: 0.311 µM
CC50 [4]: 5.06 µM
GI50 [5]: 0.385 µM
GI50 [6]: 0.358 µM
CC50 [6]: 6.77 µM
GI50 [7]: 1.12 µM
GI50 [8]: 0.461 µM
CC50 [8]: 4.19 µM
GI50 [9]: 0.594 µM
CC50 [9]: 7.2 µM
GI50 [11]: 0.334 µM
CC50 [11]: 3.87 µM
GI50 [12]: 1.1 µM
GI50 [13]: 1.18 µM
GI50 [14]: 1.34 µM
GI50 [15]: 1.07 µM
GI50 [16]: 0.24 µM
CC50 [16]: 0.764 µM
GI50 [17]: 0.504 µM
CC50 [17]: > 100 µM
GI50 [18]: 1.04 µM
CC50 [18]: 5.92 µM
GI50 [19]: 0.268 µM
CC50 [19]: 3.86 µM
GI50 [20]: 0.295 µM
GI50 [21]: 0.616 µM
CC50 [21]: 4.55 µM
GI50 [22]: 0.19 µM
CC50 [22]: 3.49 µM
GI50 [23]: 0.334 µM
CC50 [23]: 3.78 µM
GI50 [24]: 1.17 µM
CC50 [24]: 6.89 µM
GI50 [25]: 1.02 µM
CC50 [25]: 7.3 µM
GI50 [26]: 0.357 µM
CC50 [26]: 3.57 µM
GI50 [27]: 1.01 µM
GI50 [28]: 0.379 µM
GI50 [29]: 0.865 µM
GI50 [30]: 0.343 µM
GI50 [31]: 0.164 µM
GI50 [32]: 0.306 µM
GI50 [33]: 1.22 µM
CC50 [33]: 9.59 µM
